Data from patent publication US10428055B2, “Substituted piperidines having GPR119 agonistic activity” (DONG-A ST CO., LTD., priority 2014, dated 2019).

Experiments:
Human GPR119 = target: T1, Human GPR119 (Homo sapiens, UniProt Q8TDV5); assay: Human GPR119 activation assay (cAMP, HTRF); assay type: cell-based; details: 1 h, HEK293 cells transiently expressing human GPR119, relative to maximum effect of OEA, read-out: hGPR119 activation ability (cAMP assay) Relative Response % vs OEA; for Emax at 0.001 µM: 1 nM; for Emax at 0.01 µM: 10 nM
T1 construct: host or cells: HEK293 (ATCC)
T1 sequence (Q8TDV5 1-335): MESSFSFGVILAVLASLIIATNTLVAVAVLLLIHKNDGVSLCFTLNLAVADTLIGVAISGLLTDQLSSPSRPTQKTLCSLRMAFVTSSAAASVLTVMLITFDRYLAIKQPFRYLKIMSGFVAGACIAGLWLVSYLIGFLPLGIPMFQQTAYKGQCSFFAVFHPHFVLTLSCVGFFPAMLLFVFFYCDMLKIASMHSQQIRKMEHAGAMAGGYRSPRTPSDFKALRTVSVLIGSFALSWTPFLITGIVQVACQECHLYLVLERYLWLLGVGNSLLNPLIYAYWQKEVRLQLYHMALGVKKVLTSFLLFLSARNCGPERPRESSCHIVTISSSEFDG
Procedure, shortened: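 HEK293 cells transiently overexpressing human GPR119 (48 h), pre-treated 10 min then exposed 60 min to compound in KRBH with 11.1 mM glucose, 0.1% BSA and 0.5 mM IBMX. Intracellular cAMP quantified by HTRF; activation expressed as % of maximal oleoylethanolamide effect from multiple-concentration testing.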

C57BL/6 mouse = assay: Assessment of glucose tolerance improvement effect in mouse; assay type: in vivo; details: 2 h; 10 mg/kg oral, 30 min before oral glucose 2 g/kg; male C57BL/6 mouse; blood glucose AUC
Protocol: <Experimental Example 2>Assessment of glucose tolerance improvement effect in mouse
As one of anti-diabetic effect indicators, the glucose tolerance improvement effect of the above compounds was evaluated in 7-week male laboratory mouse (C57BL/6 mouse), as the effect of improving postprandial glycemic control ability.
The laboratory mouse was fasted from the day before the experiment for 16-17 hours. The compound of the present invention was orally administered 30 minutes before administrating glucose, and after 30 minutes, a glucose solution (2 g/kg/10 ml) was orally administered. A drug was prepared by suspending in a 10% Gelucire solution. At the times immediately before drug administration, immediately before glucose solution administration, 15 minutes, 30 minutes, 60 minutes, 90 minutes, and 120 minutes after glucose administration, the whole blood glucose levels was measured from tail vein using a blood glucose meter (AccuChek Active, Roche Diagnostics), and the area under the curve of a temporal blood glucose curve was calculated. From the calculated area under the blood glucose curve, the area under the blood glucose curve of a negative control group to which no glucose solution was administered was subtracted, and inhibitory activity against blood glucose increase of a control group to which only the 10% Gelucire solution and glucose solution were administered was calculated as a percentage, thereby evaluating the glucose tolerance improvement efficacy of a drug.
The results are shown in Table 3, in which the glucose tolerance improvement effect represented at a dose of 10 mg/kg was represented by classifying into three groups, under 30%, more than 30% under 40%, and more than 40%. A significant glucose tolerance improvement effect was identified in 22 compounds on which the experiment was carried out, and among those compounds, 16 compounds represented an excellent in vivo activity of 30% inhibitory dose of 10 mg/kg or less. In the following Table 3, A represents an inhibitory activity more than 40%, B represents an inhibitory activity more than 30% under 40% and C represents an inhibitory activity under 30%.

Row | Emax at 0.001 µM (Human GPR119) [%] | Emax at 0.01 µM (Human GPR119) [%] | Compound | inhibition in vivo at 10 mg/kg (C57BL/6 mouse) [%]
1 | 168 | 266 | Cc1nnc(-c2c(F)cc(OCCCC3CCN(c4nc(C(C)C)no4)CC3)cc2F)o1 [Example 55, 5-(4-(3-(3,5-difluoro-4-(5-methyl-1,3,4-oxadiazol-2-yl)phenoxy)propyl)piperidin-1-yl)-3-isopropyl-1,2,4-oxadiazole] | 30 to 40
2 | 255 | 395 | CC(C)c1noc(N2CCC(CCCOc3cc(F)c(-c4nnc(C(C)C)o4)c(F)c3)CC2)n1 [Example 57, 5-(4-(3-(3,5-difluoro-4-(5-isopropyl-1,3,4-oxadiazol-2-yl)phenoxy)propyl)piperidin-1-yl)-3-isopropyl-1,2,4-oxadiazole] | 30 to 40
